The source of these data is patent publication US9782389B2, “Fungal mycobiome as probiotics, diagnostics and therapeutics” (Cedars-Sinai Medical Center, priority 2012, dated 2017).

The test system of one test is intestinal fungi. The experiment in a line: Depletion of intestinal fungi by fluconazole, colon sections stained with sDEC-1. The test is classed as in vivo, mouse. Particulars: mice treated with fluconazole 0.5 mg/ml in drinking water for 2 weeks; sDEC-1 staining of colon sections. Here is the method:
OCT-embedded intestinal specimens were sectioned, mounted on microscope slides and then incubated for 40 min in PBS containing 2% FCS. Murine soluble Dectin-1 (sDec-1) was generated and biotin-labeled as previously described. sDec-1 (10 μg/ml) was fluorescently labeled with streptavidin-Alexa 647 (2 μg/ml, Invitrogen) (sDec-1-Alexa647), and intestinal sections were stained for 1 hr. To block Dectin-1 interaction. sDec-1-Alexa647 was incubated with 1 μg/ml laminarin (soluble β-glucan from Laminaria digitata, Sigma) and intestinal sections were stained as previously described. Alternatively, intestinal sections were stained with FITC conjugated rabbit anti-Candida polyclonal antibody (Meridian Life Science, Cincinnati, Ohio). […] Therefore throughout this study we have referred to the antibody as an “anti-fungal antibody”. Slides were rinsed with PBS and stained for 5 min with 0.1 μg/ml 4′,6-diamidino-2-phenylindole (DAPI, Invitrogen) and overlaid with mounting medium (Vectashield; Vector, Burlingame, Calif.). Slides were examined using a Zeiss Axio Observer Fluorescence microscope. All compared images were collected and processed identically. Colons from Fluconazole (0.5 mg/ml for 2 weeks in the drinking water) treated mice were used in control staining.

The test system of another test is DSS colitis. As to the kind of experiment: DSS colitis with fluconazole in the drinking water (anti-fungal therapy). The format is in vivo, mouse. As to conditions: Clec7a−/− mice; for weight loss during colitis: fluconazole 0.5 mg/ml in drinking water for 14 days starting 2 days prior to DSS, 2.5% DSS 7 days, effect from day 9 (p<0.05). Here is the method:
WT and Clec7a−/− mice were cohoused for three weeks prior the experiments. Alternatively, WT and Clec7a−/− littermates were used where indicated. For the induction of colitis, mice were given drinking water supplemented with 2.5% (w/v) Dextran sulphate sodium (DSS, MP Biomedicals, LLC, Aurora, Ohio) for 7 days and sacrificed at day 12. For ablation of intestinal fungi, mice were given Fluconazole (0.5 mg/ml, Sigma) in the drinking water for total of 14 days starting 2 days prior the induction of DSS colitis. In some experiments, prior and upon colitis induction, mice were supplemented every other day with four doses (1×108 yeast/mouse/dose) of Candida tropicalis or Saccharomycopsis fibuligera as shown in FIG. 19. Body weight, gross blood, and stool consistency were analyzed on a daily basis. Paraffin embedded colon tissues were sectioned and stained with H&E for pathology assessment. Assessment of the severity of colitis was measured by the disease activity index (DAI) as previously described.
LI-LP lymphocytes were isolated as previously described with some modifications. Briefly, colons were isolated, opened longitudinally, washed of fecal contents and then cut into 1 cm pieces. Intestinal pieces were transferred into HBSS medium (Sigma), supplemented with 5% fetal bovine serum (FBS) and 2 mM EDTA, and were shaken for 15 min at 37° C. The suspensions were filtered through a mesh and the filtrate containing the mucosa and mucosa associated microflora was used further for DNA isolation. The remaining tissue was washed, cut in small pieces and subsequently incubated in digestion medium consisting of RPMI 1640, 5% FBS, 0.5 mg/ml collagenase type VIII (Sigma), 5 U/ml DNase (Roche Diagnostics), 100 IU/ml penicillin and 100 μg/ml streptomycin for 30 min at 37° C. by gentle shaking. The cell suspensions were filtered through a mesh, and then centrifuged at 1300 rpm. Cell suspensions were cultured overnight and TNF-α production by colonic cells was measured by ELISA (BioLegend, San Diego, Calif.).
Cell suspensions were prepared from MLNs and the LI-LP as described above. Cells were incubated with 50 ng/ml phorbol 12-myristate 13-acetate (PMA; Sigma-Aldrich), 500 ng/ml ionomycin (Sigma-Aldrich) and 10 μg/ml Brefeldin A (BFA; Sigma-Aldrich) in complete RPMI media at 37° C. for 6 h. After surface staining with CD4, cells were permeabilized and intracellular cytokine staining was performed using APC-labeled anti-IFN-γ mAb (XMG1.2; BD Biosciences) and PE-labeled anti-IL-17 mAb (TC11-18H10; BD Biosciences) according to the manufacturer's instructions. Flow cytometry was performed using a LSRII (BD Biosciences) and data were analyzed with FlowJo software (TreeStar Inc.).
For detection of cytokines by ELISA, MLN cells and LI-LP lymphocytes were stimulated with 10 μg/ml plate bound anti-CD3 and anti-CD28 antibodies (BioLegend, San Diego, Calif.). Supernatants were collected after 36 hrs and analyzed for IFN-γ and IL-17 production by ELISA (BioLegend, San Diego, Calif.).
Tissue samples from the proximal and distal colon were isolated and homogenized. RNA was isolated by using RNeasy Mini Kit (Qiagen) and reverse transcribed. Real-time RT-PCR analyses were done on the Applied Biosystems 7500 Fast Real-Time PCR System with the SYBR Green PCR kit as instructed by the manufacturer (Applied Biosystems). […] Samples were analyzed for gene expression using the following primers: […]

Setting [1] is: fluconazole in drinking water, DSS colitis.

Molecules are shown by their SMILES. “Also recorded” adds a separate entry of the source.

As for `OC(Cn1cncn1)(Cn1cncn1)c1ccc(F)cc1F` [fluconazole], in the test on intestinal fungi, the “presence of fungi in the intestine” value is given as “substantially reduces the presence of fungi; also recorded: suppressed fungal growth”. Moreover, the “weight loss during colitis” value in the test on DSS colitis is “reduced weight loss”. In addition, the “weight loss during colitis” value with DSS colitis (listed as Fluconazole) is listed as “significantly abrogated weight loss”. Moreover, the colitis overall result in the test with DSS colitis (fluconazole in drinking water for 14 days starting 2 days prior to DSS) is “ameliorates colitis”. Besides, the “histological disease characteristics (histology score)” value with DSS colitis (fluconazole in drinking water, 4 days after the 7 days of DSS) is “milder histological disease characteristics”. Also, in the test with DSS colitis (setting [1]), the “Th1 and Th17 responses (IL-17 and IFN-γ producing CD4+ T cells in LI-LP, production in MLNs)” value was “decreased Th1 and Th17 responses”; the “production of inflammatory cytokines in the colon” value is listed as “decreased production of inflammatory cytokines”.
